Tests used:
Type in all cases: cell-based
[1] = biological target: T1, Prostaglandin G/H synthase 2 (Mus musculus, UniProt Q05769); experiment: Inhibition of COX2-mediated PGE2 production in LPS-stimulated mouse RAW264.7 cells by ELISA
T1 sequence (Q05769 whole entry): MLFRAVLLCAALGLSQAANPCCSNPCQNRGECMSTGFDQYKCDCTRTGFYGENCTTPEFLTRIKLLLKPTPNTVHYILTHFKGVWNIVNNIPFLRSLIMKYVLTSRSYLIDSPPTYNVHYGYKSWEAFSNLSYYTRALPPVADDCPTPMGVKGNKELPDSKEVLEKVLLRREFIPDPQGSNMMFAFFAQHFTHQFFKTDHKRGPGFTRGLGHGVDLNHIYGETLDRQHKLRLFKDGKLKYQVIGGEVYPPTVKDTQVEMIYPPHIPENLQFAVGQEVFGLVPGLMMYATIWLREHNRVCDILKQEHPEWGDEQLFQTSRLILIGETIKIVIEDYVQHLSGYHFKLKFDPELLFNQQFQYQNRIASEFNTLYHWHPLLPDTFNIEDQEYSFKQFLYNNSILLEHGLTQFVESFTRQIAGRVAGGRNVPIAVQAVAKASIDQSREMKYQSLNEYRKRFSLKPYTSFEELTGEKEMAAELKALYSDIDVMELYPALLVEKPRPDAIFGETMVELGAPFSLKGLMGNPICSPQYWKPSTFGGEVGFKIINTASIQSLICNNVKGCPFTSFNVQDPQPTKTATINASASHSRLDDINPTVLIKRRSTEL

[2] = biological target: T2, Nitric oxide synthase, inducible (Mus musculus, UniProt P29477); experiment: Inhibition of iNOS-mediated NO production in LPS-stimulated mouse RAW264.7 cells by Griess method
T2 sequence (P29477 whole entry): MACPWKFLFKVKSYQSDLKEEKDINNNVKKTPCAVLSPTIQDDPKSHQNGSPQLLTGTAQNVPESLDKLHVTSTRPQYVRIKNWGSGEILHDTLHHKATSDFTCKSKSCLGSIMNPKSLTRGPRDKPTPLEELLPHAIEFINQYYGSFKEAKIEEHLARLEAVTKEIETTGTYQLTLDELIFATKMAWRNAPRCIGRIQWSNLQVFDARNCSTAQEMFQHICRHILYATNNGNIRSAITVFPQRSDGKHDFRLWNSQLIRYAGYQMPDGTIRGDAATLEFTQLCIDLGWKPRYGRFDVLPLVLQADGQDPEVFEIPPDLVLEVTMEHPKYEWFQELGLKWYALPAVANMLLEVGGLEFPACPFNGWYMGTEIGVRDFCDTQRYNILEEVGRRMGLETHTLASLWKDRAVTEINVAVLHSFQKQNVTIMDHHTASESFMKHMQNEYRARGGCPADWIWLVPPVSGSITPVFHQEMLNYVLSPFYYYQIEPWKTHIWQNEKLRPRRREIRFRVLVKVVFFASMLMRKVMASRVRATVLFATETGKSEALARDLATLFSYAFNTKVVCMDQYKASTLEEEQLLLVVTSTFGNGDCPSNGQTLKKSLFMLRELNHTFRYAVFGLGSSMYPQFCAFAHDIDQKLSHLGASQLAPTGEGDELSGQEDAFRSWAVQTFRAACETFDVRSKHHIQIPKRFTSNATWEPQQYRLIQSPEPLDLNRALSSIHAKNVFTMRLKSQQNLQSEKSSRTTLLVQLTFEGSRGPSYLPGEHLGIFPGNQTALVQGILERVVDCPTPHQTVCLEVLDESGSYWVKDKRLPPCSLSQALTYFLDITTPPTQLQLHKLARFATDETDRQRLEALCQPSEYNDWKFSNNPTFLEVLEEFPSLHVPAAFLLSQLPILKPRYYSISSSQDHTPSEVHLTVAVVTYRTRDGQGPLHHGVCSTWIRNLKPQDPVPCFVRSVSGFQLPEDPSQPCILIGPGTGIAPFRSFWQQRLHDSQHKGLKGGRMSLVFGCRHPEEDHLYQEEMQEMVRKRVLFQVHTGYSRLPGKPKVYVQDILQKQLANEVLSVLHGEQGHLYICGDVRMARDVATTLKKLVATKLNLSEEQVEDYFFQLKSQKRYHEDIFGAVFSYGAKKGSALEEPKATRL

[3] = biological target: T3, Nitric oxide synthase, inducible (Mus musculus) (UniProt P29477); experiment: Inhibition of iNOS-mediated NO production in LPS-stimulated mouse RAW264.7 cells at […]
T3 sequence (whole entry): T2 sequence (P29477 whole entry)

SMILES | IC50 [1] | IC50 [2] | inhibition [3]
COc1ccc(-c2cc(=O)c3cc(Oc4ccc5c(=O)cc(-c6ccccc6)oc5c4)ccc3o2)cc1 | 2 µM |  | 
COc1ccccc1-c1cc(=O)c2cc(Oc3ccc4c(=O)cc(-c5ccccc5)oc4c3)ccc2o1 | > 50 µM |  | 
O=c1cc(-c2ccccc2)oc2cc(Oc3ccc4oc(-c5ccccc5)cc(=O)c4c3)ccc12 | < 2 µM | > 50 µM | 
O=c1cc(-c2ccccc2)oc2cc(Oc3ccc4oc(-c5ccccc5O)cc(=O)c4c3)ccc12 | > 50 µM |  | 
COc1ccc(-c2cc(=O)c3cc(Oc4ccc5c(=O)cc(-c6ccccc6)oc5c4)ccc3o2)c(OC)c1 | 2 µM |  | 
O=c1cc(-c2ccc(O)cc2O)oc2cc(Oc3ccc4oc(-c5ccc(O)cc5O)cc(=O)c4c3)ccc12 | 10 µM | 10 µM | 
O=c1cc(-c2ccc(O)cc2)oc2cc(Oc3ccc4oc(-c5ccc(O)cc5O)cc(=O)c4c3)ccc12 | > 50 µM | > 50 µM | 
COc1ccc(-c2cc(=O)c3cc(Oc4ccc5c(=O)cc(-c6ccc(OC)cc6OC)oc5c4)ccc3o2)cc1 | > 50 µM | > 50 µM | 
O=c1cc(-c2ccccc2)oc2cc(Oc3ccc4oc(-c5ccc(O)cc5O)cc(=O)c4c3)ccc12 | > 50 µM |  | 
O=c1cc(-c2ccc(O)cc2)oc2cc(Oc3ccc4oc(-c5ccccc5O)cc(=O)c4c3)ccc12 | > 50 µM | 10 µM | 

The next lines start with the values.

IC50 [1] | IC50 [2] | inhibition [3] | SMILES
50 µM | > 50 µM |  | COc1ccc(-c2cc(=O)c3ccc(Oc4ccc5oc(-c6ccc(OC)cc6OC)cc(=O)c5c4)cc3o2)c(OC)c1
 |  | 92.5% | CC1CCN=C(N)S1 (stereo not drawn)
> 50 µM | > 50 µM |  | COc1ccc(-c2cc(=O)c3ccc(Oc4ccc5oc(-c6ccc(OC)cc6OC)cc(=O)c5c4)cc3o2)cc1
> 50 µM | 50 µM |  | O=c1cc(-c2ccc(O)cc2)oc2ccc(Oc3ccc4c(=O)cc(-c5ccc(O)cc5O)oc4c3)cc12
> 50 µM |  |  | O=c1cc(-c2ccc(O)cc2)oc2cc(Oc3ccc4oc(-c5ccc(O)cc5)cc(=O)c4c3)ccc12

Reference: ChEMBL document CHEMBL1139311, “Synthesis of biflavones having a 6-O-7'' linkage and effects on cyclooxygenase-2 and inducible nitric oxide synthase” (Bioorg Med Chem Lett, 2009)
